Experimental data taken from ChEMBL document CHEMBL1201862, “PubChem BioAssay data set” (2004).
Active and inactive are the calls of the source.

Key:
[1] = HEp-2 cell cytotoxicity, dose response, cytotoxicity control for RSV inhibitor project, HTS (AID 2410); type: functional; details: human respiratory syncytial virus
Vero [2] = assay: cells; type: functional, cell-based; details: Chlorocebus sabaeus
Vero [3] = assay: cells; type: functional; details: Chlorocebus sabaeus
Beta-galactosidase = Beta-galactosidase (Escherichia coli, UniProt Q8VNN2); assay: Dose response counterscreen for EBI2 assay utilizing the enzyme, b-galactosidase.; type: functional
Sequence of Beta-galactosidase (Q8VNN2 whole entry): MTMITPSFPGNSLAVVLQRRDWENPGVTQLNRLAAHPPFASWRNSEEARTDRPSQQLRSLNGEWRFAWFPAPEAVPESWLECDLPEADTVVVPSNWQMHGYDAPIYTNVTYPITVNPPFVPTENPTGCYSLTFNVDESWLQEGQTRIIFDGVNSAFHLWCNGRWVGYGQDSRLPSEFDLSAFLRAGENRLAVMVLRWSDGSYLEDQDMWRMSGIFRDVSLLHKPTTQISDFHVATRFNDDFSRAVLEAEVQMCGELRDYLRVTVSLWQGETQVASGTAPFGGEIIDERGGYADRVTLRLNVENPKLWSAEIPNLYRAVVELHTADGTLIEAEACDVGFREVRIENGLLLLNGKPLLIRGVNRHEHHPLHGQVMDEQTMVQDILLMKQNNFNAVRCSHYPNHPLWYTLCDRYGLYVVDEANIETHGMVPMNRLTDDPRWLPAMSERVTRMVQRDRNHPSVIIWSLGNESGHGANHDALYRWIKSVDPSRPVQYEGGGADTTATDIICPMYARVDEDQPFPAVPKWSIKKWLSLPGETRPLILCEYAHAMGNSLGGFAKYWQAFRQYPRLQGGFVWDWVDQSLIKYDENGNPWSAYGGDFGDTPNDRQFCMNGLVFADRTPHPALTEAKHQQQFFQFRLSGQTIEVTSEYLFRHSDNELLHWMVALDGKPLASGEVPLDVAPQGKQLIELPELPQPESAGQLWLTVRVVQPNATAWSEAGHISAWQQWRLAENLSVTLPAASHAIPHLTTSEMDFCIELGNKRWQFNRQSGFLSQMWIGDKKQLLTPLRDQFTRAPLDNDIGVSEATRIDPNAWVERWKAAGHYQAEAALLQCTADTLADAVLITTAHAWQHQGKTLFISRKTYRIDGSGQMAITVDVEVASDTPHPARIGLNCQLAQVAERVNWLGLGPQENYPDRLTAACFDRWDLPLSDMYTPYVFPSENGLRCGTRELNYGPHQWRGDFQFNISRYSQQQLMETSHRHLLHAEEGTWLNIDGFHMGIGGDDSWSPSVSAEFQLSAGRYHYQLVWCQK

[4] = molecular target: T1, Corticotropin-releasing factor receptor 2/Corticotropin-releasing factor-binding protein (Homo sapiens, UniProt P24387+Q13324); assay: Dose Response confirmation of uHTS hits for small molecule antagonists of the CRF-binding protein and CRF-R2 receptor complex.; type: functional; details: read-out: IC50_Mean
T1 sequence (Q13324 whole entry): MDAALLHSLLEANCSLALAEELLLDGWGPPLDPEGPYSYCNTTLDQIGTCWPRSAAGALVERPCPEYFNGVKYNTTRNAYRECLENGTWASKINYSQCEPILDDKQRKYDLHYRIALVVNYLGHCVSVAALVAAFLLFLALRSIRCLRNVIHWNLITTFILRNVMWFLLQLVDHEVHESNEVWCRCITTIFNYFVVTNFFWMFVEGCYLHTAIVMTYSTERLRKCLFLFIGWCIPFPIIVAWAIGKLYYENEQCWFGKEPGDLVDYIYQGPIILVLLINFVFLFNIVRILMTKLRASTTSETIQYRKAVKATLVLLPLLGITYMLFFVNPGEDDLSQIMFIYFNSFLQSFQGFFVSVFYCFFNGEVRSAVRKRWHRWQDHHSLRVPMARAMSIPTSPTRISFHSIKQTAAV
T1 sequence (P24387 whole entry): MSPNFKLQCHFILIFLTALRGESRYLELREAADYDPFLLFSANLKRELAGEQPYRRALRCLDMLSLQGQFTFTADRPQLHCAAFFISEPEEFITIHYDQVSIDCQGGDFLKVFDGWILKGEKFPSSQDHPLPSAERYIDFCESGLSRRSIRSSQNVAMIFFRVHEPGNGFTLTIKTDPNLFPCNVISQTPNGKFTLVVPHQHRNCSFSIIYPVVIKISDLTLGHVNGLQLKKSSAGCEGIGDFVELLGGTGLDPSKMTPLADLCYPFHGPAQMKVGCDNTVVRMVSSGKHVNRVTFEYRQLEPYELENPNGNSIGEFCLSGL

[5] = molecular target: T1, Corticotropin-releasing factor receptor 2/Corticotropin-releasing factor-binding protein; assay: activators of CRF receptor 2 with binding protein – uHTS hits, confirmation (AID 602473); type: functional; details: read-out: EC50_Mean
[6] = CRF-BP/CRF-R2 complex antagonists, dose response, cell-based, uHTS hits, 384-well (AID 651639); type: functional, Homo sapiens; details: read-out: IC50_Mean
Protein Wnt-3a = Protein Wnt-3a (Mus musculus, UniProt P27467); assay: Wnt3a-driven reporter signaling inhibition, dose response, selectivity assay for Gli-SUFU antagonist project, Wnt-LIGHT cells, luminescence (AID 651570); type: functional; details: read-out: IC50_Mean;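 further: Wnt-LIGHT reporter cells stimulated with conditioned medium from Wnt3a-producing cells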
Sequence of Protein Wnt-3a (P27467 whole entry): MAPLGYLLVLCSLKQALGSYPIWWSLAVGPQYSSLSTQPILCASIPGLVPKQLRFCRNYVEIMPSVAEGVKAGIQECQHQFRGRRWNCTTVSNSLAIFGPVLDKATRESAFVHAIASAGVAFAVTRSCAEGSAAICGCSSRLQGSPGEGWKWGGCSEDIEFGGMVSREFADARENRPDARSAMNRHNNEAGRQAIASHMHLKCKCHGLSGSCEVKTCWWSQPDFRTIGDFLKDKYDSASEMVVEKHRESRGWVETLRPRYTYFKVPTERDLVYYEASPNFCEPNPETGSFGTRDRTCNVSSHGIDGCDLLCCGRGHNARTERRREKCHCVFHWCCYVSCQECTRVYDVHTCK

[7] = inhibitors of firefly luciferase expression or activity, dose response, H4 neuroglioma cells, luminescence (AID 1990); type: functional, cell-based
[8] = inhibitors of SNCA 5'UTR-driven reporter translation, confirmation, H4 neuroglioma cells, luminescence (AID 1988); type: functional, cell-based
[9] = miR-122 activators in hepatoma reporter cells, dose response, cell-based, Huh7 psiCHECK-miR122, Renilla luciferase, cherry-picked (AID 651956); type: functional;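 further: huh7 hepatoma cells stably carrying a psiCHECK-2 miR-122 sensor plasmid; renilla luciferase signal reporting endogenous miR-122 activity after 48 h compound exposure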
[10] = molecular target: T2, Heat shock factor protein 1 (Mus musculus, UniProt P38532); assay: inhibition of MG132-induced HSE-luciferase signal, confirmation, cell-based, NIH3T3, luminescence, dose retest (AID 2382); type: functional;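 further: NIH3T3 fibroblasts with HSF1-driven luciferase reporter stressed by proteasome inhibitor MG132; luminescence from HSF1-driven luciferase expression after 8 hours of MG132 stress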
T2 sequence (P38532 whole entry): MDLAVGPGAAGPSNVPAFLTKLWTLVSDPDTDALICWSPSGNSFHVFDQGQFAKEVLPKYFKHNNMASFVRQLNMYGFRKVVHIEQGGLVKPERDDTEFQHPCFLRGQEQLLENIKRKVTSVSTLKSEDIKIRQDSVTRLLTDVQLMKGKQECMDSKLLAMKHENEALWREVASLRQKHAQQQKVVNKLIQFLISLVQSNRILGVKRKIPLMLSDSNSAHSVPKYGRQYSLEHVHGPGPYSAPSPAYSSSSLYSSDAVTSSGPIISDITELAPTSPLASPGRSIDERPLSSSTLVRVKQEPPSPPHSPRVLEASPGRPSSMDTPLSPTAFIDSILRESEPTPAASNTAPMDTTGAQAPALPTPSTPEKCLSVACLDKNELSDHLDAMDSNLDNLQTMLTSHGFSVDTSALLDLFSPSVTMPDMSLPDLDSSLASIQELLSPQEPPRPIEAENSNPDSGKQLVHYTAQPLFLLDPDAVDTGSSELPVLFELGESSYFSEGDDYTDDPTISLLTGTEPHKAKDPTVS

Coagulation factor XII = molecular target: T3, Coagulation factor XII (Homo sapiens, UniProt P00748); type: functional;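 further: activated factor XIIa alpha cleaving a fluorogenic AMC peptide substrate; inhibitor potency from loss of enzyme activity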
T3 sequence (P00748 whole entry): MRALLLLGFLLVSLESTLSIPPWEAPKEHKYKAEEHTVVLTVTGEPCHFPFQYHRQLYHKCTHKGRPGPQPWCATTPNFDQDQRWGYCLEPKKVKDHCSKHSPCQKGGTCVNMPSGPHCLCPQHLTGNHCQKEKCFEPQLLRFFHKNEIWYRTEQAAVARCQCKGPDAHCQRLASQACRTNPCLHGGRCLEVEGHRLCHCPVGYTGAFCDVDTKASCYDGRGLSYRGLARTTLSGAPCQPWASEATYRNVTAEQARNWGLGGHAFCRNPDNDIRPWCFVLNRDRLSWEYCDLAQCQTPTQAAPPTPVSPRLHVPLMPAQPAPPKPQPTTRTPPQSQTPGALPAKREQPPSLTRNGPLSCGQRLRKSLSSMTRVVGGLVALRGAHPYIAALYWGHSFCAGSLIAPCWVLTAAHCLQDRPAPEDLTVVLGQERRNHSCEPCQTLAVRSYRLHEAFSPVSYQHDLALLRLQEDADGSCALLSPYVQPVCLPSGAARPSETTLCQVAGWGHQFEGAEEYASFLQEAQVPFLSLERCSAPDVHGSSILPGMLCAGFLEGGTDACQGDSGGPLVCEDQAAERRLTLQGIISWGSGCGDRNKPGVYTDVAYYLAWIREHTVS

[11] = microbe, parasite or virus in culture; type: functional; details: Mycobacterium tuberculosis
[12] = AlphaScreen signal interference compounds, dose response, artefact control for ARNT-TACC3 interaction inhibitor project, biochemical, luminescence, cherry-pick (AID 651705); type: functional;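 further: AlphaScreen bead proximity signal that flags compounds interfering with the detection technology; potency reflects signal decrease which marks the compound as an assay artifact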
[13] = Luminescence Cell-Based Dose Retest to Confirm Inhibitors of Cancer Stem Cells. [Related pubchem assays (depositor defined):AID2717, AID2721]; type: functional; details: Homo sapiens
[14] = molecular target: T4, Small ubiquitin-related modifier 1 (Homo sapiens, UniProt P63165); assay: inhibitors of SUMO1 peptide binding, dose response, biochemical, fluorescence polarization, uHTS hits (AID 624382); type: functional; details: read-out: IC50_Mean
T4 sequence (P63165 whole entry): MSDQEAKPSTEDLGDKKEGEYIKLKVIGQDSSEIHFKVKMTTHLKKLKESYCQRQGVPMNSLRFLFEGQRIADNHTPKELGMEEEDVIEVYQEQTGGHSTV

[15] = molecular target: T4, Small ubiquitin-related modifier 1; assay: inhibitors of SUMO1 partner interactions, dose response, biochemical, FRET (AID 624383); type: functional; details: read-out: IC50_Mean

For O=C(Nc1ccccc1SCC1CSc2nc3ccccc3c(=O)n21)c1cccc(Cl)c1 (centres undefined), the CC50 [1] was 24.7 µM (active), the IC50 (Vero [2]) was 14.9 µM (active) and the CC50 (Vero [3]) was > 25 µM (active). The IC50 (cells) was 10.3 µM (active).
In the case of CSc1ccc(CN2CCN(C(=O)COc3ccc(C)cc3)CC2)cc1, the IC50 (Beta-galactosidase) was > 80 µM (inactive).
For CCOC(=O)c1c(-c2ccc(OC)c(OC)c2)csc1NC(=O)C1CCCO1 (centres undefined), the IC50 [4] was 3.95 µM (active), the EC50 [5] was > 53 µM (inactive) and the IC50 [6] was > 20 µM (inactive).
In the case of CCOC(CN=c1nc(N(C)C)ss1)OCC, the IC50 (Protein Wnt-3a) was 40.4 µM (inactive).
For O=C(NC1CCCc2c1cnn2-c1ccccc1F)c1ccccn1 (centres undefined), the EC50 [7] was > 120 µM (not active), the EC50 [8] was 57.4 µM (active) and the IC50 (Vero [2]) was 5.73 µM (active). The CC50 (Vero [3]) was > 25 µM (active).
In the case of CN(c1ccccc1)S(=O)(=O)c1ccc(C(=O)Nc2cccc(S(=O)(=O)N3CCOCC3)c2)cc1, the AC50 [9] was 59.3 µM (active).
For COc1cccc(CNc2ccc(S(N)(=O)=O)cc2)c1OC, the EC50 [10] was > 195 µM (not active) and the IC50 (Coagulation factor XII) was > 50 µM (inactive).
With c1ccc(-c2n[nH]c(-c3ccccn3)n2)cc1 the CC50 [11] was > 40 µM (active) and the AC50 [12] was 116 µM (active).
With Cc1cc(C)nc(SCc2ccc(C(=O)NNC(=O)Nc3cccc(Cl)c3)cc2)n1 the AC50 [13] was 3.65 µM (active), the IC50 [4] was 5.95 µM (active) and the EC50 [5] was > 53 µM (inactive). The IC50 [6] was 11.6 µM (active).
With C=C(C)C(=O)Nc1ccc2c(c1)OCCOCCOCCO2 the IC50 [14] was > 66.6 µM (inactive) and the IC50 [15] was 1.74 µM (active).
